Data: PubChem BioAssay (NCI)
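Each compound was tested at five concentrations against cells in 96-well plates for 48 hours. Abbreviation: GI50, concentration required for 50% inhibition of growth. TGI: total growth inhibition.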

Columns and labels:
Assay in all cases: NCI anticancer screen, dose series, 48 h
[1] = tested on: UACC-257 melanoma
[2] = tested on: OVCAR-4 ovarian
[3] = tested on: HCC-2998 colon
[4] = tested on: NCI/ADR-RES ovarian
[5] = tested on: UACC-62 melanoma
[6] = tested on: MCF7 breast
[7] = tested on: SK-MEL-28 melanoma
[8] = tested on: SN12C renal
[9] = tested on: 786-0 renal
[10] = tested on: KM12 colon
[11] = tested on: MDA-MB-231 breast
[12] = tested on: DU-145 prostate
[13] = tested on: LOX IMVI melanoma
[14] = tested on: HT29 colon
[15] = tested on: MDA-MB-435
[16] = tested on: TK-10 renal
[17] = tested on: IGROV1 ovarian
[18] = tested on: RPMI-8226 leukemia
[19] = tested on: HOP-92 NSCLC
[20] = tested on: CAKI-1 renal
[21] = tested on: SF-268 CNS
[22] = tested on: NCI-H522 lung
[23] = tested on: NCI-H23 lung
[24] = tested on: SK-MEL-5 melanoma
[25] = tested on: SF-539 CNS
[26] = tested on: SW-620 colon
[27] = tested on: ACHN renal
[28] = tested on: MALME-3M melanoma
[29] = tested on: SK-OV-3 ovarian
[30] = tested on: NCI-H226 lung
[31] = tested on: OVCAR-5 ovarian
[32] = tested on: EKVX NSCLC
[33] = tested on: HS 578T breast
[34] = tested on: A549 NSCLC
[35] = tested on: HCT-116 colon
[36] = tested on: UO-31 renal
[37] = tested on: CCRF-CEM leukemia
[38] = tested on: COLO 205 colon
[39] = tested on: K-562 leukemia
[40] = tested on: SR leukemia
[41] = tested on: NCI-H460 lung
[42] = tested on: SNB-19 CNS
[43] = tested on: U251 CNS
[44] = tested on: OVCAR-8 ovarian
[45] = tested on: PC-3 prostate
[46] = tested on: HL-60(TB) leukemia
[47] = tested on: OVCAR-3 ovarian
[48] = tested on: BT-549 breast
[49] = tested on: HCT-15 colon
[50] = tested on: MOLT-4 leukemia
[51] = tested on: HOP-62 NSCLC
[52] = tested on: A498 renal
[53] = tested on: T-47D breast
[54] = tested on: SK-MEL-2 melanoma
[55] = tested on: RXF 393 renal
[56] = tested on: SNB-75 CNS
[57] = tested on: SF-295 CNS

COc1cc(C(=O)c2cnc(-c3ccc4cc[nH]c4c3)[nH]2)cc(OC)c1OC showed a GI50 [1] of 2.03 µM, a TGI [1] of 17.4 µM and a GI50 [2] of 0.993 µM. The TGI [2] was 20 µM, the GI50 [3] was 0.117 µM and the TGI [3] was 4.02 µM. For the same compound, the GI50 [4] was 0.0371 µM, the TGI [4] was 56 µM and the GI50 [5] was 0.0244 µM. For the same compound, the TGI [5] was 13.8 µM, the GI50 [6] was 0.0376 µM and the TGI [6] was 11.4 µM. The GI50 [7] was 0.454 µM, the TGI [7] was 16 µM and the GI50 [8] was 0.066 µM. It also gave a TGI [8] of 14.7 µM, a GI50 [9] of 0.0419 µM and a TGI [9] of 2.34 µM. The GI50 [10] was 0.0313 µM, the TGI [10] was 2.16 µM and the GI50 [11] was 0.0609 µM. For the same compound, the TGI [11] was 1.44 µM, the GI50 [12] was 0.0363 µM and the TGI [12] was 11.1 µM. The GI50 [13] was 0.105 µM, the TGI [13] was 1.98 µM and the GI50 [14] was 0.0316 µM. It also gave a TGI [14] of 0.108 µM, a TGI [15] of 0.0245 µM and a GI50 [16] of 0.34 µM. The TGI [16] was 12.4 µM, the GI50 [17] was 0.0997 µM and the TGI [17] was 16.7 µM. The GI50 [18] was 0.0417 µM, the TGI [18] was 2.77 µM and the GI50 [19] was 0.632 µM. For the same compound, the TGI [19] was 6.16 µM, the GI50 [20] was 0.0503 µM and the TGI [20] was 4.2 µM. The GI50 [21] was 0.0808 µM, the TGI [21] was 7.19 µM and the GI50 [22] was less than 0.0128 µM. It also gave a TGI [22] of 0.0913 µM, a GI50 [23] of 0.0575 µM and a TGI [23] of 21 µM. The GI50 [24] was 0.0385 µM, the TGI [24] was 0.389 µM and the GI50 [25] was 0.0214 µM. For the same compound, the TGI [25] was 0.0623 µM, the GI50 [26] was 0.0398 µM and the TGI [26] was 21.7 µM. For the same compound, the GI50 [27] was 0.0973 µM, the TGI [27] was 6.11 µM and the GI50 [28] was 1.61 µM. It also gave a TGI [28] of 9.89 µM, a GI50 [29] of 0.0358 µM and a TGI [29] of 1.93 µM. For the same compound, the GI50 [30] was 0.117 µM, the TGI [30] was 9 µM and the GI50 [31] was 0.225 µM. For the same compound, the TGI [31] was 23.9 µM, the GI50 [32] was 0.0721 µM and the TGI [32] was 19.7 µM. The GI50 [33] was 0.0461 µM, the TGI [33] was greater than 86.9 µM and the GI50 [34] was 0.0523 µM. For the same compound, the TGI [34] was 11.7 µM, the GI50 [35] was 0.0332 µM and the TGI [35] was 2.23 µM. It also gave a GI50 [36] of 0.153 µM, a TGI [36] of 5.11 µM and a GI50 [37] of 0.0374 µM. It also gave a TGI [37] greater than 44.6 µM, a GI50 [38] of 0.0277 µM and a TGI [38] of 0.105 µM. For the same compound, the GI50 [39] was 0.0173 µM, the TGI [39] was 8.74 µM and the GI50 [40] was 0.0302 µM. It also gave a TGI [40] of 23.8 µM, a GI50 [41] of 0.0376 µM and a TGI [41] of 11.5 µM. The GI50 [42] was 0.0409 µM, the TGI [42] was 13.7 µM and the GI50 [43] was 0.0393 µM. The TGI [43] was 11 µM, the GI50 [44] was 0.0484 µM and the TGI [44] was 11.5 µM. The GI50 [45] was 0.0286 µM, the TGI [45] was 15.1 µM and the GI50 [46] was 0.0224 µM. It also gave a TGI [46] of 0.0535 µM, a GI50 [47] of 0.0195 µM and a TGI [47] of 0.0477 µM. It also gave a GI50 [48] of 0.0631 µM, a TGI [48] of 3.12 µM and a GI50 [49] of 0.0381 µM. The TGI [49] was 4.96 µM, the GI50 [50] was 0.0597 µM and the TGI [50] was 15.6 µM. It also gave a GI50 [51] of 0.0354 µM, a TGI [51] of 6.5 µM and a GI50 [52] of 0.0136 µM. The TGI [52] was 0.0788 µM.
For COc1ccc(-c2ccc(-c3ccc(C(=N)N)cc3)s2)cc1Cl, the GI50 [10] was 1.75 µM, the TGI [10] was 3.13 µM and the GI50 [12] was 1.7 µM. The TGI [12] was 3.06 µM, the GI50 [53] was 1.85 µM and the TGI [53] was 4.33 µM. It also gave a GI50 [54] of 2.05 µM, a TGI [54] of 4.2 µM and a GI50 [27] of 1.62 µM. It also gave a TGI [27] of 2.97 µM, a GI50 [29] of 1.98 µM and a TGI [29] of 4.46 µM. The GI50 [31] was 1.55 µM, the TGI [31] was 2.88 µM and the GI50 [46] was 1.91 µM. It also gave a TGI [46] of 4.05 µM.
Work on O=C(CCN1CCCC1)Nc1ccc2c(Nc3ccc(Br)cc3)c3ccccc3nc2c1 yielded a GI50 [1] of 1.89 µM, a TGI [1] of 3.7 µM and a GI50 [2] of 1.51 µM. For the same compound, the TGI [2] was 2.92 µM, the GI50 [3] was 1.26 µM and the TGI [3] was 2.73 µM. For the same compound, the GI50 [5] was 1.64 µM, the TGI [5] was 3.12 µM and the GI50 [7] was 1.63 µM. For the same compound, the TGI [7] was 3.02 µM, the GI50 [8] was 1.3 µM and the TGI [8] was 2.69 µM. The GI50 [9] was 1.5 µM, the TGI [9] was 3.02 µM and the GI50 [10] was 1.57 µM. It also gave a TGI [10] of 3.29 µM, a GI50 [11] of 1.57 µM and a TGI [11] of 2.99 µM. It also gave a GI50 [12] of 0.798 µM, a TGI [12] of 2.07 µM and a GI50 [55] of 1.23 µM. For the same compound, the TGI [55] was 2.57 µM, the GI50 [13] was 1 µM and the TGI [13] was 2.24 µM. The GI50 [15] was 1.68 µM, the TGI [15] was 3.1 µM and the GI50 [16] was 1.72 µM. For the same compound, the TGI [16] was 3.37 µM, the GI50 [17] was 1.23 µM and the TGI [17] was 2.59 µM. It also gave a GI50 [18] of 1.73 µM, a TGI [18] of 6.07 µM and a GI50 [56] of 1.37 µM. The TGI [56] was 2.68 µM, the GI50 [19] was 1.31 µM and the TGI [19] was 2.71 µM. It also gave a GI50 [54] of 1.98 µM, a TGI [54] of 3.76 µM and a GI50 [20] of 1.53 µM. The TGI [20] was 2.87 µM, the GI50 [21] was 1.33 µM and the TGI [21] was 2.81 µM. It also gave a GI50 [23] of 1.47 µM, a TGI [23] of 2.92 µM and a GI50 [24] of 1.57 µM. For the same compound, the TGI [24] was 2.92 µM, the GI50 [25] was 1.55 µM and the TGI [25] was 2.95 µM. For the same compound, the GI50 [26] was 1.24 µM, the TGI [26] was 2.64 µM and the GI50 [27] was 1.23 µM. It also gave a TGI [27] of 2.48 µM, a GI50 [28] of 1.62 µM and a TGI [28] of 3.09 µM. The GI50 [30] was 1.39 µM, the TGI [30] was 3.02 µM and the GI50 [31] was 1.63 µM. It also gave a TGI [31] of 3.03 µM, a GI50 [32] of 1.59 µM and a TGI [32] of 3.05 µM. For the same compound, the GI50 [57] was 1.59 µM, the TGI [57] was 3.02 µM and the GI50 [36] was 1.33 µM. It also gave a TGI [36] of 2.61 µM, a GI50 [37] of 0.494 µM and a TGI [37] of 2.83 µM. For the same compound, the GI50 [38] was 1.85 µM, the TGI [38] was 4.33 µM and the GI50 [40] was 0.288 µM. For the same compound, the TGI [40] was 2.58 µM, the GI50 [41] was 0.337 µM and the TGI [41] was 1.55 µM. It also gave a GI50 [42] of 1.44 µM, a TGI [42] of 2.79 µM and a GI50 [45] of 1.4 µM. It also gave a TGI [45] of 3.04 µM, a GI50 [47] of 1.61 µM and a TGI [47] of 3.11 µM. It also gave a GI50 [48] of 1.44 µM, a TGI [48] of 3 µM and a GI50 [49] of 1.16 µM. The TGI [49] was 2.5 µM, the GI50 [52] was 1.7 µM and the TGI [52] was 5.82 µM.
